The values that follow come from PubChem BioAssay AID328 (DTP/NCI, 2004).

In this assay the test system is BDF1 mice, P388 leukemia ip, median survival T/C. As to the kind of experiment: NCI In Vivo Anticancer Drug Screen. Data for tumor model P388 Leukemia (intraperitoneal) in B6D2F1 (BDF1) mice. Particulars: endpoint: median survival time, higher = longer survival. In short, it runs like this:
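Survival ratio, drug arm over vehicle arm, in mice with a transplanted tumour.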

[1] abbreviates: dose: 50.0 mg/kg/injection, schedule: Q01DX009 (ip), vehicle: saline with Tween-80.
[2] abbreviates: dose: 100.0 mg/kg/injection, schedule: Q01DX009 (ip), vehicle: saline with Tween-80.
Setting [3] is: dose: 200.0 mg/kg/injection, schedule: Q01DX009 (ip), vehicle: saline with Tween-80.
The mark [4] stands for this setting: dose: 200.0 mg/kg/injection, schedule: Q04DX003 (ip), vehicle: saline sonified.
The mark [5] stands for this setting: dose: 200.0 mg/kg/injection, schedule: Q04DX003 (ip), vehicle: saline.

Values joined by “and” are separate entries in the source; they are usually repeats but may differ in a detail not shown here. Identical values can stand only once. Toxic doses and inconclusive results are not listed.

As to `CCCCCCc1nc2nc(Cl)c(Cl)nc2[nH]1`, the T/C (dose: 0.78 mg/kg/injection, schedule: Q01DX009 (ip), vehicle: saline with Tween-80) was 100 % of control; the T/C (dose: 1.56 mg/kg/injection, schedule: Q01DX009 (ip), vehicle: saline with Tween-80) is 89 % of control; the T/C (dose: 3.12 mg/kg/injection, schedule: Q01DX009 (ip), vehicle: saline with Tween-80) was 92 % of control; the T/C (dose: 6.25 mg/kg/injection, schedule: Q01DX009 (ip), vehicle: saline with Tween-80) was 92 % of control; the T/C (dose: 12.5 mg/kg/injection, schedule: Q01DX009 (ip), vehicle: saline with Tween-80) is 95 % of control.

With `CC(=O)N(CC1CNc2nc(N)[nH]c(=O)c2N1C(=O)CCCCCCC(=O)N1c2c(nc(N)[nH]c2=O)NCC1CN(C(C)=O)c1ccc(C(=O)NC(CCC(=O)O)C(=O)O)cc1)c1ccc(C(=O)NC(CCC(=O)O)C(=O)O)cc1` (stereo not given), the T/C was 103 % of control (dose: 50.0 mg/kg/injection, schedule: Q04DX003 (ip), vehicle: sodium bicarbonate); 91 % of control (dose: 100.0 mg/kg/injection, schedule: Q04DX003 (ip), vehicle: sodium bicarbonate); 112 % of control (dose: 200.0 mg/kg/injection, schedule: Q04DX003 (ip), vehicle: sodium bicarbonate).

Regarding `C=C1C(=O)OC2/C=C(\C)C(=O)/C=C\C(C)(O)CC(OC(=O)C(C)C)C12` (stereo not given), the T/C (dose: 25.0 mg/kg/injection, schedule: Q01DX009 (ip), vehicle: saline + alcohol) was 100 % of control.

Take `CC(NC(=O)C(C)NC(=O)C(N)CCS(C)(=O)=NP(=O)(O)O)C(=O)O` (stereo not given): the T/C (dose: 12.5 mg/kg/injection, schedule: Q01DX009 (ip), vehicle: saline) is 101 % of control and the T/C (dose: 25.0 mg/kg/injection, schedule: Q01DX009 (ip), vehicle: saline) is 110 % of control.

In the case of `CC1(C#N)CCC(CCc2ccccc2)C(=O)C1` (stereo not given), the T/C runs as follows: (dose: 75.0 mg/kg/injection, schedule: Q04DX003 (ip), vehicle: saline) 95 % of control; (dose: 150.0 mg/kg/injection, schedule: Q04DX003 (ip), vehicle: saline) 87 % of control; (dose: 300.0 mg/kg/injection, schedule: Q04DX003 (ip), vehicle: saline) 104 % of control.

As for `CCCN(CCC)CC(O)c1cc2cc(C(F)(F)F)cc(C(F)(F)F)c2c2ccccc12` (stereo not given), the T/C by setting is: under setting [1], 107 % of control; under setting [2], 114 % of control.

In the case of `CC(=O)C1(O)Cc2c(O)c3c(c(O)c2C(O)C1)C(=O)c1c(OC(C)C)cccc1C3=O` (stereo not given), the T/C is, setting by setting: (dose: 3.13 mg/kg/injection, schedule: Q04DX003 (ip), vehicle: other) 108 % of control; (dose: 3.13 mg/kg/injection, schedule: Q04DX009 (ip), vehicle: other) 101 % of control; (dose: 6.25 mg/kg/injection, schedule: Q04DX003 (ip), vehicle: other) 105 % of control; (dose: 6.25 mg/kg/injection, schedule: Q04DX009 (ip), vehicle: other) 92 % of control; (dose: 12.5 mg/kg/injection, schedule: Q04DX003 (ip), vehicle: other) 100 % of control; (dose: 12.5 mg/kg/injection, schedule: Q04DX009 (ip), vehicle: other) 110 % of control. Also, the T/C is, setting by setting: (dose: 25.0 mg/kg/injection, schedule: Q04DX003 (ip), vehicle: other) 105 % of control; (dose: 25.0 mg/kg/injection, schedule: Q04DX009 (ip), vehicle: other) 110 % of control; (dose: 50.0 mg/kg/injection, schedule: Q04DX003 (ip), vehicle: other) 101 % of control; (dose: 50.0 mg/kg/injection, schedule: Q04DX009 (ip), vehicle: other) 99 % of control.

On to `CS(=O)(=O)C1CCCCC1SC#N` (stereo not given), for which the T/C is 98 % of control under setting [1], 115 % of control under setting [2] and 115 % of control under setting [3].

On to `CC1([CH2][Hg][I])COCC([CH2][Hg][I])O1` (stereo not given), for which the T/C (dose: 2.87 mg/kg/injection, schedule: Q04DX003 (ip), vehicle: saline) is 100 % of control; the T/C (dose: 5.0 mg/kg/injection, schedule: Q01DX009 (ip), vehicle: saline with Tween-80) was 118 % of control; the T/C (dose: 5.0 mg/kg/injection, schedule: Q04DX003 (ip), vehicle: saline with Tween-80) was 100 % of control; the T/C (dose: 5.75 mg/kg/injection, schedule: Q01DX009 (ip), vehicle: saline) is 95 % of control; the T/C (dose: 5.75 mg/kg/injection, schedule: Q04DX003 (ip), vehicle: saline) is 109 % of control; the T/C (dose: 10.0 mg/kg/injection, schedule: Q01DX009 (ip), vehicle: saline with Tween-80) was 113 % of control. Further, the T/C is, setting by setting: (dose: 10.0 mg/kg/injection, schedule: Q04DX003 (ip), vehicle: saline with Tween-80) 90 % of control; (dose: 11.5 mg/kg/injection, schedule: Q01DX009 (ip), vehicle: saline) 100 % of control; (dose: 11.5 mg/kg/injection, schedule: Q04DX003 (ip), vehicle: saline) 100 % of control; (dose: 17.0 mg/kg/injection, schedule: Q04DX003 (ip), vehicle: saline) 100 % of control; (dose: 20.0 mg/kg/injection, schedule: Q01DX009 (ip), vehicle: saline with Tween-80) 95 % of control; (dose: 20.0 mg/kg/injection, schedule: Q04DX003 (ip), vehicle: saline with Tween-80) 118 % of control. In addition, the T/C (dose: 26.0 mg/kg/injection, schedule: Q04DX003 (ip), vehicle: saline) was 118 % of control.

Take `CCCCC(CC)COC(=O)CC(CC(=O)OCC(CC)CCCC)C(=O)OCC(CC)CCCC` (stereo not given): the T/C is, setting by setting: under setting [1], 92 % of control; under setting [2], 92 % of control; under setting [3], 92 % of control.

For the compound `O=Cc1ccc(C=O)c(Cl)c1`, the T/C reads like this: (dose: 25.0 mg/kg/injection, schedule: Q01DX009 (ip), vehicle: saline with Tween-80) 104 % of control; under setting [1], 90 % of control; (dose: 88.0 mg/kg/injection, schedule: Q04DX003 (ip), vehicle: saline sonified) 105 % of control; under setting [2], 118 % of control; (dose: 132.0 mg/kg/injection, schedule: Q04DX003 (ip), vehicle: saline sonified) 100 % of control; under setting [4], 100 % of control. The T/C (dose: 300.0 mg/kg/injection, schedule: Q04DX003 (ip), vehicle: saline sonified) was 120 % of control.

Regarding `CN(C=C(C#N)C#N)c1ccccc1`, under setting [1], the T/C is 105 % of control.

In the case of `CCOC(=O)c1cc(C)nnc1C(=O)OCC`, the T/C was 95 % of control (dose: 100.0 mg/kg/injection, schedule: Q04DX003 (ip), vehicle: saline); 95 % of control under setting [5]; 91 % of control (dose: 400.0 mg/kg/injection, schedule: Q04DX003 (ip), vehicle: saline).

As to `CC(=O)c1ccccc1Br`, the T/C runs as follows: (dose: 100.0 mg/kg/injection, schedule: Q01DX001 (ip), vehicle: Klucel (hydroxypropylcellulose) (HPC)) 95 % of control; (dose: 100.0 mg/kg/injection, schedule: Q04DX003 (ip), vehicle: Klucel (hydroxypropylcellulose) (HPC)) 95 % of control; (dose: 200.0 mg/kg/injection, schedule: Q01DX001 (ip), vehicle: Klucel (hydroxypropylcellulose) (HPC)) 108 % of control; (dose: 200.0 mg/kg/injection, schedule: Q04DX003 (ip), vehicle: Klucel (hydroxypropylcellulose) (HPC)) 100 % of control; (dose: 400.0 mg/kg/injection, schedule: Q01DX001 (ip), vehicle: Klucel (hydroxypropylcellulose) (HPC)) 100 % of control; (dose: 400.0 mg/kg/injection, schedule: Q04DX003 (ip), vehicle: Klucel (hydroxypropylcellulose) (HPC)) 100 % of control.

Regarding `COC(=O)C(C)(OC)OC`, the T/C reads like this: (dose: 100.0 mg/kg/injection, schedule: Q01DX009 (ip), vehicle: saline) 100 % of control; (dose: 200.0 mg/kg/injection, schedule: Q01DX009 (ip), vehicle: saline) 100 % of control; (dose: 400.0 mg/kg/injection, schedule: Q01DX009 (ip), vehicle: saline) 100 % of control.

Regarding `CC[C@H]1CN2CCc3cc(OC)c(OC)cc3[C@@H]2C[C@@H]1C[C@H]1NCCc2c1[nH]c1ccc(O)cc21`, the T/C (dose: 2.0 mg/kg/injection, schedule: Q04DX003 (ip), vehicle: saline + alcohol) is 186 % of control and the T/C (dose: 4.0 mg/kg/injection, schedule: Q04DX003 (ip), vehicle: saline + alcohol) was 183 % of control.

For the compound `Cc1ccc(Cl)c([N+](=O)[O-])c1N`, the T/C was 104 % of control under setting [1], 87 % of control under setting [2] and 91 % of control under setting [3].

As for `C[n+]1ccc(Nc2ccc(NC(=O)c3ccc(Nc4cc[n+](C)c5ccc([N+](=O)[O-])cc45)cc3[N+](=O)[O-])cc2)cc1`, the T/C runs as follows: (dose: 25.0 mg/kg/injection, schedule: Q04DX003 (ip), vehicle: saline) 105 % of control and 116 % of control; under setting [5], 158 % of control and 203 % of control.

On to `Nc1nnc(N)s1`, for which the T/C was 100 % of control (dose: 100.0 mg/kg/injection, schedule: Q04DX003 (ip), vehicle: saline sonified); 100 % of control under setting [4]; 100 % of control (dose: 400.0 mg/kg/injection, schedule: Q04DX003 (ip), vehicle: saline sonified).
